Measured values: patent US20030215462A1, “Use of UGT inhibitors to increase bioavailability” (priority 2001, published 2003)
“And” between values parts separate entries of the source, which are not always exact repeats. Identical values can stand only once.

Legend:
[1] = target: T1, UGT enzymes of human liver microsomes (Homo sapiens, UniProt P16662); test: Inhibition of zidovudine glucuronidation in human liver microsomes; type: biochemical; conditions: liver lot 062101
T1 construct: residual metabolism (percentage of control), zidovudine glucuronidation; other: liver lot 062101; residual metabolism (percentage of control), zidovudine glucuronidation; residual metabolism (percentage of control)
T1 sequence (P16662 1-529): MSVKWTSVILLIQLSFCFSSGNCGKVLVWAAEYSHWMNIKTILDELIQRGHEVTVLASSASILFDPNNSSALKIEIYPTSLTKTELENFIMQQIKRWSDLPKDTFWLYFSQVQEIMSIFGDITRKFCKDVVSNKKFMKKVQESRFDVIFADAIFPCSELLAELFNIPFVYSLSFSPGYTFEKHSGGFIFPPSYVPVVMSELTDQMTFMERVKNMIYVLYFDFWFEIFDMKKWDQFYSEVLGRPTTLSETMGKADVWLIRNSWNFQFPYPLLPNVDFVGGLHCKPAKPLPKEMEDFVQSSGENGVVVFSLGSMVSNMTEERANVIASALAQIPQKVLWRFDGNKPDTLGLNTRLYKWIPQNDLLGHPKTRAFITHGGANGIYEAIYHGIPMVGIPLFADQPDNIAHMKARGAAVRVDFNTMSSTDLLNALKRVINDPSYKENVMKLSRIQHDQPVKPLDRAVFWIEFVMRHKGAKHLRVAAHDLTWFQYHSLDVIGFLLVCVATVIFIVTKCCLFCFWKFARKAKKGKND
Experimental: Compounds were eluted using a binary solvent gradient system where solvent A was dilute phosphoric acid (pH 3) and solvent B was acetonitrile.
Standardized incubations utilized 500 μM zidovudine substrate, 1 mg/ml microsomal protein, 5 mM UDPGA and a 30 min incubation time. […] Int.

[2] = test system: UGT enzymes of human liver microsomes; test: Inhibition of raloxifene glucuronidation (G1, G2) in human liver microsomes; type: biochemical; conditions: for % of control metabolism (SD, n = 3), raloxifene glucuronide G1 / % of control metabolism (SD, n = 3), raloxifene glucuronide G2: human liver microsomes 250 μg/ml, 15 min
From the text: Compounds were eluted using a binary solvent gradient system. […] Solvent B was methanol. […] Detection was at 280 nm.

[3] = test system: UGT enzymes of pooled human jejunum microsomes; test: Inhibition of 2ME2 glucuronidation (MG1) in pooled human jejunum microsomes; type: biochemical; conditions: jejunum HJ61, 2ME2 50 μM
From the text: Compounds were eluted using a binary solvent gradient system where solvent A was dilute phosphoric acid (pH 3) and solvent B was 80:20 acetonitrile-methanol. […] Detection was at 280 nm.

UGT1A9 = target: T2, UGT1A9 (Homo sapiens, UniProt O60656); test: Inhibition of raloxifene glucuronidation by recombinant UGT1A9 Supersomes; conditions: for activity at 15 min, 10 µM / activity at 15 min, 25 µM / activity at 15 min, 50 µM: human, Supersomes with recombinant human UGT1A9, pH 7.5, probe raloxifene 50 μM; for Inhibition of raloxifene glucuronidation, UGT1A9, second line per inhibitor (G2): second line (G2, metabolite not given), raloxifene 50 μM, 250 μg/ml Supersomes, 1 mM UDPGA, 15 min
T2 sequence (O60656 26-530): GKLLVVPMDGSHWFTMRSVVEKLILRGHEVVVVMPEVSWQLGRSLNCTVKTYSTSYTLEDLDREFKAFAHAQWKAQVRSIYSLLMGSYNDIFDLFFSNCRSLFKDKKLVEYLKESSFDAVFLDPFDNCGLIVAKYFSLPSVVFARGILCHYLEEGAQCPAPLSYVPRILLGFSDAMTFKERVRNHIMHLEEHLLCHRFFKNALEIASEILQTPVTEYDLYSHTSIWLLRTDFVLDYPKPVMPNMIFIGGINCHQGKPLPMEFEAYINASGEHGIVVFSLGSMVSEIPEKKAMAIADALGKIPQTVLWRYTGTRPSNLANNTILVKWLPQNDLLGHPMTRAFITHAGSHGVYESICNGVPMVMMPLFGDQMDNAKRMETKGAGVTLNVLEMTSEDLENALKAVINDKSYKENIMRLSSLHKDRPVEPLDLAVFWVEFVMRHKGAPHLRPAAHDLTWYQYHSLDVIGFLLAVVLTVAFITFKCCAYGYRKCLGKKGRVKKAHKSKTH

[4] = test system: T3, UGT enzymes of human liver microsomes; test: Inhibition of labetalol glucuronidation (LG1, LG2) in human liver microsomes; type: biochemical; conditions: labetalol 50 μM
T3 construct: residual metabolism (percentage of control), labetalol LG1; other: labetalol 50 μM; residual metabolism (percentage of control), labetalol LG1; residual metabolism (percentage of control), labetalol LG2; inhi
Experimental: Supernatants were analyzed by HPLC with fluorescence detection.
Compounds were eluted using a binary solvent gradient system where solvent A was 5:5:90 tetrahydrofuran-acetonitrile-(NH4)2HPO4 50 mM, while solvent B was 25:25:50 tetrahydrofuran-acetonitrile-(NH4)2HPO4 50 mM. Solvent flow rate was 0.75 ml/min and the column temperature was ambient. […] Labetalol and metabolites were measured by fluorescence detection using a Jasco model FP920 detector. Excitation and emission wavelengths were 370 nm 418 nm respectively. Retention times for salicylamide internal standard and labetalol were 6.6 min and 15.0 min respectively.

[5] = inhibitor 2 μM, raloxifene 50 μM
[6] = inhibitor 5 μM, raloxifene 50 μM
[7] = inhibitor 10 μM, raloxifene 50 μM
[8] = inhibitor 25 μM, raloxifene 50 μM
[9] = inhibitor 50 μM, raloxifene 50 μM
[10] = inhibitor 100 μM, raloxifene 50 μM
[11] = inhibitor 500 μM, raloxifene 50 μM
[12] = liver lot 032101, inhibitor 50 μM
[13] = liver lot 062101, inhibitor 50 μM
[14] = liver lot 083000, inhibitor 50 μM
[15] = raloxifene 50 μM, inhibitor 10 μM
[16] = raloxifene 50 μM, inhibitor 25 μM
[17] = raloxifene 50 μM, inhibitor 50 μM
[18] = raloxifene 50 μM, inhibitor 100 μM

O=c1c(O)c(-c2ccc(O)c(O)c2)oc2cc(O)cc(O)c12 [Quercetin]
residual metabolism (percentage of control), zidovudine glucuronidation ([1]; inhibitor 100 μM): 94 (8) %
residual metabolism (percentage of control), zidovudine glucuronidation ([1]; inhibitor 200 μM): 64 (4) %
% of control metabolism (SD, n = 3), raloxifene glucuronide G1 [2, 5]: 82 (6) %
% of control metabolism (SD, n = 3), raloxifene glucuronide G1 [2, 6]: 69 (1) %
% of control metabolism (SD, n = 3), raloxifene glucuronide G1 [2, 7]: 48 (1) %
% of control metabolism (SD, n = 3), raloxifene glucuronide G1 [2, 8]: 18 (1) %
% of control metabolism (SD, n = 3), raloxifene glucuronide G1 [2, 9]: 8 (1) %
% of control metabolism (SD, n = 3), raloxifene glucuronide G1 [2, 10]: 6 (2) %
% of control metabolism (SD, n = 3), raloxifene glucuronide G1 [2, 11]: 0 (0) %
% of control metabolism (SD, n = 3), raloxifene glucuronide G2 [2, 5]: 78 (3) %
% of control metabolism (SD, n = 3), raloxifene glucuronide G2 [2, 6]: 67 (2) %
% of control metabolism (SD, n = 3), raloxifene glucuronide G2 [2, 7]: 50 (1) %
% of control metabolism (SD, n = 3), raloxifene glucuronide G2 [2, 8]: 25 (1) %
% of control metabolism (SD, n = 3), raloxifene glucuronide G2 [2, 9]: 15 (1) %
% of control metabolism (SD, n = 3), raloxifene glucuronide G2 [2, 10]: 13 (2) %
% of control metabolism (SD, n = 3), raloxifene glucuronide G2 [2, 11]: 0 (0) %
% of control metabolism, raloxifene G1 [2, 12]: 25 (1) %
% of control metabolism, raloxifene G2 [2, 12]: 35 (1) %
% of control metabolism, raloxifene G1 [2, 13]: 34 (3) %
% of control metabolism, raloxifene G2 [2, 13]: 35 (3) %
% of control metabolism, raloxifene G1 [2, 14]: 8 (1) %
% of control metabolism, raloxifene G2 [2, 14]: 15 (1) %
% of control metabolism, raloxifene G1 [2, 15]: 48 (1) %
% of control metabolism, raloxifene G2 [2, 15]: 50 (1) %
% of control metabolism, raloxifene G1 [2, 16]: 18 (1) %
% of control metabolism, raloxifene G2 [2, 16]: 25 (1) %
% of control metabolism, raloxifene G1 [2, 17]: 8 (1) %
% of control metabolism, raloxifene G2 [2, 17]: 15 (1) %
% of control metabolism, raloxifene G1 [2, 18]: 6 (2) %
% of control metabolism, raloxifene G2 [2, 18]: 13 (2) %
residual metabolism (% of control), 2ME2 MG1 ([3]; inhibitor 25 μM): 56 (2) %
residual metabolism (% of control), 2ME2 MG1 ([3]; inhibitor 50 μM): 44 (2) %
residual metabolism (% of control), 2ME2 MG1 ([3]; inhibitor 100 μM): 19 (1) %
inhibition of raloxifene glucuronidation, in words (UGT1A9; UGT1A9): good inhibitor
activity at 15 min, 10 µM (UGT1A9; formation of glucuronide G1, % of control metabolism, raloxifene G1, UGT1A9, inhibitor 10 μM): 59%
activity at 15 min, 25 µM (UGT1A9; formation of glucuronide G1, % of control metabolism, raloxifene G1, UGT1A9, inhibitor 25 μM): 45%
activity at 15 min, 50 µM (UGT1A9; formation of glucuronide G1, % of control metabolism, raloxifene G1, UGT1A9, inhibitor 50 μM): 26%
activity at 15 min, 10 µM (UGT1A9; formation of glucuronide G2, % of control metabolism, raloxifene G2, UGT1A9, inhibitor 10 μM): 56%
activity at 15 min, 25 µM (UGT1A9; formation of glucuronide G2, % of control metabolism, raloxifene G2, UGT1A9, inhibitor 25 μM): 39%
activity at 15 min, 50 µM (UGT1A9; formation of glucuronide G2, % of control metabolism, raloxifene G2, UGT1A9, inhibitor 50 μM): 24%
Inhibition of raloxifene glucuronidation, UGT1A9, second line per inhibitor (G2) (UGT1A9; inhibitor 5 μM): 85 (5)
Inhibition of raloxifene glucuronidation, UGT1A9, second line per inhibitor (G2) (UGT1A9; inhibitor 10 μM): 56 (3)
Inhibition of raloxifene glucuronidation, UGT1A9, second line per inhibitor (G2) (UGT1A9; inhibitor 25 μM): 39 (2)
Inhibition of raloxifene glucuronidation, UGT1A9, second line per inhibitor (G2) (UGT1A9; inhibitor 50 μM): 24 (2)
residual metabolism (percentage of control), labetalol LG1 ([4]; inhibitor 50 μM): 78 (4) %
residual metabolism (percentage of control), labetalol LG2 ([4]; inhibitor 50 μM): 70 (3) %
residual metabolism (percentage of control), labetalol LG1 ([4]; inhibitor 100 μM): 56 (8) % and 49 (7) %
residual metabolism (percentage of control), labetalol LG2 ([4]; inhibitor 100 μM): 47 (6) % and 43 (9) %
